Target: T1, GCase (Homo sapiens, UniProt P04062)
T1 construct: endogenous in cells; host or cells: HeLa cells
T1 sequence (P04062 40-536): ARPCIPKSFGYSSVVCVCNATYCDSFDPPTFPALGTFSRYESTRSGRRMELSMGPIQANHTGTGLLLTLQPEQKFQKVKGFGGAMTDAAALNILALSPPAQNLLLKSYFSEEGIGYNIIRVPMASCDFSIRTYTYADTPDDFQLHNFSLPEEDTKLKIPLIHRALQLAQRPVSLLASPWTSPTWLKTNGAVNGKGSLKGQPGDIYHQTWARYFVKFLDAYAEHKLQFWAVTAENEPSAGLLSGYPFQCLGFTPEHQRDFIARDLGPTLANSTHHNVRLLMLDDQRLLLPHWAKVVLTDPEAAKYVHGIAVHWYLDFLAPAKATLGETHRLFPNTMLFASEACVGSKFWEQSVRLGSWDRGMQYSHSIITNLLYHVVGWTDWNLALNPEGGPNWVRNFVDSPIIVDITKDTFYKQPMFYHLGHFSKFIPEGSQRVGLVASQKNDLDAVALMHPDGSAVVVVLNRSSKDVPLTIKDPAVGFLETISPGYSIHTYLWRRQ
Experiment: activation of GCase in a live cell PFB assay in HELA cells
Format: cell-based

| Structure (SMILES) | EC50 |
| --- | --- |
| COc1ccc(OCC2CCN(c3nc(N)nc(C)c3C)CC2)cc1 [Compound 458] | > 100 µM |
| CCN1CCC(NC(=O)N2CCC(COc3ccc(OC)cc3)CC2)C1 (centres unmarked) [Compound 434] | > 100 µM |
| C[C@H]1CC[C@H](COc2cccnc2C(F)(F)F)CN1c1cnc2cnn(CC(F)F)c2n1 [Compound 78, 3-{[(3S,6S)-1-[1-(2,2-Difluoroethyl)pyrazolo[3,4-b]pyrazin-6-yl]-6-methylpiperidin-3-yl]methoxy}-2-(trifluoromethyl)pyridine] | > 100 µM |
| COc1ccc(OCC2CCN(C(=O)CN3CCCN(C)CC3)CC2)cc1 [Compound 474] | > 100 µM |
| Cc1cnc2c(C(=O)N3CCCC(COc4ccccc4C)C3)c(-c3ccccc3)n(C)c2n1 (centres unmarked) [Compound 257, (3,5-Dimethyl-6-phenyl-5H-pyrrolo[2,3-b]pyrazin-7-yl)(3-((o-tolyloxy)methyl)piperidin-1-yl)methanone] | 50 to 100 µM |
| COc1ccc(OCC2CCN(C(=O)c3cnc(N)nc3C)CC2)cc1 [Compound 462] | > 100 µM |
| COc1cnc2c(n1)c(C(=O)N1CCCC(COc3ccccc3C)C1)c(-c1ccccc1)n2C (centres unmarked) [Compound 264, (2-Methoxy-5-methyl-6-phenyl-5H-pyrrolo[2,3-b]pyrazin-7-yl)(3-((o-tolyloxy)methyl)piperidin-1-yl)methanone] | 10 to 50 µM |
| O=C(CC12CCC(CC1)C2)N1CCCC(COc2ccccc2)C1 (centres unmarked) [Compound 213] | 10 to 50 µM |
| Cn1c(-c2ccc(F)cc2)cc2ncc(C(=O)N3CCCC(COc4cccnc4C(F)(F)F)C3)nc21 (centres unmarked) [Compound 58, (6-(4-fluorophenyl)-5-methyl-5H-pyrrolo[2,3-b]pyrazin-3-yl)(3-(((2-(trifluoromethyl)pyridin-3-yl)oxy)methyl)piperidin-1-yl)methanone] | 10 to 50 µM |
| CCc1noc(CNC(=O)N2CCC(COc3ccc(OC)cc3)CC2)n1 [Compound 436] | > 100 µM |
| O=C(c1ccc(N2CCCCCC2)cc1)N1CCCC(COc2ccccc2)C1 (centres unmarked) [Compound 156] | 10 to 50 µM |
| COc1ccc(OCC2CCN(c3nnc(N)s3)CC2)cc1 [Compound 429] | > 100 µM |
| COc1ccc(CCCC(=O)N2CCCC(COc3ccccc3)C2)cc1 (centres unmarked) [Compound 182] | 10 to 50 µM |

Now from value to compound:

| EC50 | Structure (SMILES) |
| --- | --- |
| 10 to 50 µM | CC(C)Sc1ccc(CC(=O)N2CCC(Oc3ccc(C(F)(F)F)cn3)CC2)cc1 [Compound 383] |
| 10 to 50 µM | C[C@H](Oc1ccccc1C(F)(F)F)[C@@H]1CCCN(c2cnc3cnn(CC(F)F)c3n2)C1 [Compound 266b, 1-(2,2-difluoroethyl)-6-((R)-3-((S)-1-(2-(trifluoromethyl)phenoxy)ethyl)piperidin-1-yl)-1H-pyrazolo[3,4-b]pyrazine] |
| 10 to 50 µM | FC(F)Cn1ncc2ncc(N3C[C@@H]4[C@@H](COc5ncccc5C(F)(F)F)[C@@H]4C3)nc21 [Compound 89, (1R,5S,6S)-3-[1-(2,2-difluoroethyl)-1H-pyrazolo[3,4-b]pyrazin-6-yl]-6-({[3-(trifluoromethyl)pyridin-2-yl]oxy}methyl)-3-azabicyclo[3.1.0]hexane] |
| 10 to 50 µM | C[C@H]1C[C@H](COc2cccnc2C(F)(F)F)CN(c2cnc3cnn(CC(F)F)c3n2)C1 [Compound 100, 1-(2,2-Difluoroethyl)-6-((3S,5S)-3-methyl-5-(((2-(trifluoromethyl)pyridin-3-yl)oxy)methyl)piperidin-1-yl)-1H-pyrazolo[3,4-b]pyrazine] |
| < 10 µM | C[C@@H](Oc1cccnc1C(F)(F)F)[C@H]1CCCN(c2cncc(-c3nncs3)n2)C1 [Compound 45b, 2-(6-((S)-3-((R)-1-((2-(trifluoromethyl)pyridin-3-yl)oxy)ethyl)piperidin-1-yl)pyrazin-2-yl)-1,3,4-thiadiazole] |
| 10 to 50 µM | COc1ccc(OCC2CCN(C(=O)c3cc(C(C)C)nc(N)n3)CC2)cc1 [Compound 461] |
| < 10 µM | CC(Oc1cccnc1C(F)(F)F)C1CCCN(c2cnc3cnn(CC(F)F)c3n2)C1 (centres unmarked) [Compound 26, 1-(2,2-Difluoroethyl)-6-(3-(1-((2-(trifluoromethyl)pyridin-3-yl)oxy)ethyl)piperidin-1-yl)-1H-pyrazolo[3,4-b]pyrazine] |
| 10 to 50 µM | O=C(c1ccc2ccn(C3COC3)c2c1)N1CCC[C@H](CCc2ccccc2C(F)(F)F)C1 [Compound 19, 1-(oxetan-3-yl)-6-[(3S)-3-{2-[2-(trifluoromethyl)phenyl]ethyl}piperidine-1-carbonyl]-1H-indole] |
| 10 to 50 µM | Cc1cnc2c(n1)c(C(=O)N1CCCC(COc3ccccc3C)C1)c(-c1ccccc1)n2C (centres unmarked) [Compound 263, (2,5-dimethyl-6-phenyl-5H-pyrrolo[2,3-b]pyrazin-7-yl)(3-((o-tolyloxy)methyl)piperidin-1-yl)methanone] |
| 10 to 50 µM | Cc1cccnc1OCC1CCN(C(=O)Cc2cn(C)c3ccccc23)CC1 [Compound 359] |
| < 10 µM | FC(F)Cn1ncc2ncc(N3CCCC(COc4cccnc4C(F)(F)F)C3)nc21 (centres unmarked) [Compound 13, 3-({1-[1-(2,2-difluoroethyl)pyrazolo[3,4-b]pyrazin-6-yl]piperidin-3-yl}methoxy)-2-(trifluoromethyl)pyridine] |
| 10 to 50 µM | Cc1ccccc1CCC(=O)N1CCCC(COc2ccccc2)C1 (centres unmarked) [Compound 129] |
| 10 to 50 µM | FC(F)Cn1ncc2ncc(N3C[C@@H]4[C@@H](COc5cc(C(F)(F)F)ccn5)[C@@H]4C3)nc21 [Compound 90, (1R,5S,6S)-3-[1-(2,2-difluoroethyl)-1H-pyrazolo[3,4-b]pyrazin-6-yl]-6-({[4-(trifluoromethyl)pyridin-2-yl]oxy}methyl)-3-azabicyclo[3.1.0]hexane] |
| < 10 µM | FC(F)Cn1ncc2ncc(N3CCC(COc4ccnc(C(F)(F)F)c4)CC3)nc21 [Compound 315, 1-(2,2-Difluoroethyl)-6-(4-(((2-(trifluoromethyl)pyridin-4-yl)oxy)methyl)piperidin-1-yl)-1H-pyrazolo[3,4-b]pyrazine] |
| < 10 µM | CC(=O)N1CCC(n2ncc3ncc(N4CCCC(COc5ccccc5C(F)(F)F)C4)nc32)CC1 (centres unmarked) [Compound 111, 1-(4-(6-(3-((2-(trifluoromethyl)phenoxy)methyl)piperidin-1-yl)-1H-pyrazolo[3,4-b]pyrazin-1-yl)piperidin-1-yl)ethan-1-one] |
| 10 to 50 µM | FC(F)Cn1ncc2ncc(N3CC4CC4(COc4cccc(C(F)(F)F)n4)C3)nc21 (centres unmarked) [Compound 284, 3-[1-(2,2-Difluoroethyl)-1H-Pyrazolo[3,4-b]Pyrazin-6-Yl]-1-({[6-(Trifluoromethyl)Pyridin-2-Yl]Oxy}Methyl)-3-Azabicyclo[3.1.0]Hexane] |
| 10 to 50 µM | FC(F)(F)c1ccc2sc([C@H]3[C@@H]4CN(c5cnc6cnn(C7COC7)c6n5)C[C@@H]43)nc2c1 [Compound 290, 2-((1R,5S,6r)-3-(1-(Oxetan-3-yl)-1H-pyrazolo[3,4-b]pyrazin-6-yl)-3-azabicyclo[3.1.0]hexan-6-yl)-5-(trifluoromethyl)benzo[d]thiazole] |
| 10 to 50 µM | O=C(Cc1ccc(OC(F)F)c(F)c1)N1CCCC(COc2ccccc2)C1 (centres unmarked) [Compound 198] |
| < 10 µM | FC(F)Cn1ncc2ncc(N3CCCC(COc4cccnc4Cl)C3)nc21 (centres unmarked) [Compound 59, 2-Chloro-3-({1-[1-(2,2-difluoroethyl)pyrazolo[3,4-b]pyrazin-6-yl]piperidin-3-yl}methoxy) pyridine] |

Source: US20240262832A1, “SMALL MOLECULE MODULATORS OF GLUCOCEREBROSIDASE ACTIVITY AND USES THEREOF” (Vanqua Bio, Inc., priority 2021, published 2024)
